# Where two headings read alike, the source gives them in different places.
# How the values were obtained:
# [1] = test system: human plasma coagulation; assay: Anti-coagulation test, PT (prothrombin time); type: biochemical
# Method: (§1) The inhibitory effect of the ginsenosides prepared in Examples on human plasma coagulation was determined by aPTT (activated partial thromboplastin time), PT(prothrombin time) and TT(thrombin time) tests.
# (§2) Fresh freeze plasma was procured from the blood bank of Seoul National University Hospital (www.snuh.org) to use in the Anti-coagulation Test in human plasma.
# (§3) To determine PT and TT, 0.1 ml plasma treated with test samples in the case of PT and 0.2 ml plasma treated with test samples in the case of TT was incubated at 37° C. for 2 mins respectively. 2 ml of PT reagent (Diagnostica Stago, Cat. 0605) and TT reagent (Diagnostica Stago, Cat. 0611) were added thereto to incubate for 3 mins. The coagulation time from the starting time of plasma coagulation with 0.1 ml of 20 mM calcium chloride solution to the ending time of plasma agglutination was determined using by fibrometer (BBL Fibrosystems, Fischer Scientific, USA).
# [2] = test system: collagen-induced platelet aggregation; assay: Platelet aggregation inhibition test (aggregometer), collagen-induced; type: cell-based, rat; details: for IC50: collagen 2˜4×10^−6 g/ml, rat adjusted PRP
# Method: (§4) 7 weeks-year old Sprgue-Dawley male white rat (240±20 g, Orient Bio Co. Ltd) was anesthetized with diethyl ether. The blood of rat was collected from heart using a syringe containing 2.2% sodium citrate (10% v/v) and centrifuged for 10 mins with the speed of 200×g and the supernatant (upper layer) of buffy coat was collected using by serum separator (Mediland Co. Ltd, 10×250 mm) to afford platelet rich plasma containing supematant(PRP). The residue was centrifuged at 1500×g for 15 min to obtain the platelet poor plasma (PPP) and the PRP was diluted with PPP to adjust the final platelet number in PRP to 4.0-4.5×10^8/ml. Platelet number was counted using a platelet counter (Excell 18 MWI, DANAM Electronics, USA) disclosed in the literature (Lee Y. Y. et al., Anti-platelet Aggregating and anti-oxidative activities of 11-O-(4′-O-Methylgalloy)-bergenin, A new compound isolated from Crassul cv. “Himaturi”, Planta Med., 71, pp 776-777).
# (§5) An aliquote (500 μl) of platelet count adjusted PRP was preincubated for 3 minutes at 37° C. in an aggregometer (490-X optical aggregometer, Chrono-Log Corp, USA) with constant stirring at 1,000 rpm. 5 μl of ginsenoside solution was added followed by successive addition of aggregation inducing agent (5 μl) at an intervals of 30 s to incubate for 30 sec with stirring at the speed of 1100 rpm. Arachidonic acid (AA, Sigma, A8798), Thromboxane A2 (U46619, Sigma, D8174) and collagen (Chrono-Log, No. 385) were used as aggregation inducing agents at the concentration of 30˜60×10^−6M (AA), 2˜4×10^−6M (U46619) and 2˜4×10^−6 g/ml (collagen) respectively. Aspirin was used as a positive control. […] The aggregation induced by AA and U46619 was determined in presence of a near-threshold concentration (1.0-1.4 μg/ml and 0.8-1.2 μg/ml, respectively) of collagen that can only induce change in platelet shape but no aggregation.
# (§6) Inhibition (%) was calculated as follows: Inhibition (%)=(1−maximal aggregation of sample-treated aPRP/maximal aggregation of vehicle-treated aPRP)×100 All experiments were performed in tripticates. IC50 values were calculated from the linear regression of the plot of mean values (n=3) of percent inhibition versus concentration of corresponding ginsenoside. Sigma Plot software was used for graphing. Regression equations were calculated using Regression Wizard from the Sigma Plot equation library.
# [3] = test system: U46619 (thromboxane A2 mimetic drug)-induced platelet aggregation; assay: Platelet aggregation inhibition test (aggregometer), U46619-induced; type: cell-based, rat; details: for IC50: U46619 2˜4×10^−6M with near-threshold collagen, rat adjusted PRP
# Method: as §4, §5, §6
# [4] = test system: human plasma coagulation; assay: Anti-coagulation test, TT (thrombin time); type: biochemical
# Method: as §1, §2, §3
# [5] = test system: human plasma coagulation; assay: Anti-coagulation test, aPTT (activated partial thromboplastin time); type: biochemical
# Method: as §1, §2
# To determine aPTT, 0.1 ml plasma treated with test samples was incubated at 37° C. for 2 mins and aPTT reagent (Diagnostica Stago, Cat. 0595) was added thereto to incubate for 3 mins. The coagulation time from the starting time of plasma coagulation with 0.1 ml of 20 mM calcium chloride solution to the ending time of plasma agglutination was determined using by fibrometer (BBL Fibrosystems, Fischer Scientific, USA).
# [6] = test system: AA-induced platelet aggregation; assay: Platelet aggregation inhibition test (aggregometer), AA-induced; type: cell-based, rat; details: for IC50: AA 30˜60×10^−6M with near-threshold collagen, rat adjusted PRP; for fold stronger activity than ASA on AA-induced aggregation: relative to ASA
# Method: as §4, §5, §6
# [7] = test system: rat platelet aggregation induced by arachidonic acid; assay: Modified smear method, arachidonic acid-induced platelet aggregation in PRP; type: cell-based; set-up: key: ++: full aggregation of platelet; +: intermediate aggregation of platelet; ±: slight aggregation of platelet; −: no aggregation of platelet; details: AA 4 × 10^−4 M
# Method: (§7) The inhibitory effect of the ginsenosides prepared in Examples on the rat platelet aggregation was determined according to the procedure disclosed in the literature (Yun-Choi et al., Modified smear method for screening potential inhibitors of platelet aggregation from plant sources, J. Nat. Prod., 48(3), pp 363-370, 1985).
# (§8) The blood of 7 weeks-year old Sprgue-Dawley rat (male, 240±20 g, Orient Bio Co. Ltd) was collected using a syringe containing 2.2% sodium citrate (10% v/v) and centrifuged for 10 mins with the speed of 200× g to collect platelet rich plasma containing supernatant(PRP). 0.16 ml of PRP was treated with 0.2 ml of SG, SGbu-1, and SGBu-2 as test samples and 0.2 ml of solutions of arachidonic acid (Sigma, A8798), ADP (Sigma, A4386) and collagen (Chrono-Log, No. 385) as platelet aggregation inducers (control group) to incubate for 4 mins at 37° C.
# (§9) Thin Smear prepared from step 1-1 was stained and the intensity of platelet aggregation result was observed by microscopy method. The intensity of platelet aggregation result was divided into […] categories, i.e., “++”: full aggregation of platelet; “+”: intermediate aggregation of platelet; “±”: slight aggregation of platelet; “−”: no aggregation of platelet.
# [8] = test system: rat platelet aggregation induced by ADP; assay: Modified smear method, ADP-induced platelet aggregation in PRP; type: cell-based; set-up: key: ++: full aggregation of platelet; +: intermediate aggregation of platelet; ±: slight aggregation of platelet; −: no aggregation of platelet; details: ADP 3.2 × 10^−6 M
# Method: as §7, §8, §9
# [9] = test system: rat platelet aggregation induced by collagen; assay: Modified smear method, collagen-induced platelet aggregation in PRP; type: cell-based; set-up: key: ++: full aggregation of platelet; +: intermediate aggregation of platelet; ±: slight aggregation of platelet; −: no aggregation of platelet; details: collagen 2 × 10^−5 g/ml
# Method: as §7, §8, §9
Compound,PT [1] [s],inhibitory effect on collagen-induced platelet aggregation (in words) [2],IC50 [2] [µM],inhibitory effect on U46619-induced platelet aggregation (in words) [3],IC50 [3] [µM],TT [4] [s],aPTT [5] [s],IC50 [6] [µM],inhibitory effect on AA-induced platelet aggregation (in words) [6],fold stronger activity than ASA on AA-induced aggregation [6] [fold],also measured
"CC(C)=CCC[C@](C)(O)[C@H]1CC[C@]2(C)[C@@H]1[C@H](O)C[C@@H]1[C@@]3(C)CC[C@H](O[C@@H]4O[C@H](CO)[C@@H](O)[C@H](O)[C@H]4O[C@@H]4O[C@H](CO)[C@@H](O)[C@H](O)[C@H]4O)C(C)(C)[C@@H]3CC[C@]12C [20(R)-ginsenosides Rg3, 20(R)-ginsenoside Rg3]",24.1,inhibited,492,inhibited,357,13.6,50.3,> 100,,,inhibitory effect on collagen-induced platelet aggregation (in words) ([2]; listed as 20(R)-Rg3): comparable to that of ASA; inhibitory effect on AA-induced platelet aggregation (in words) ([6]; listed as 20(R)-Rg3): only poor platelet antiaggregating activity
C=C(CCC=C(C)C)[C@H]1CC[C@]2(C)[C@@H]1[C@H](O)C[C@@H]1[C@@]3(C)CC[C@H](O[C@@H]4O[C@H](CO)[C@@H](O)[C@H](O)[C@H]4O[C@@H]4O[C@H](CO)[C@@H](O)[C@H](O)[C@H]4O)C(C)(C)[C@@H]3CC[C@]12C [ginsenoside Rk1],29.8,strongest inhibitory effect among four tested compounds,197,strongest inhibitory effect among four tested compounds,78,14.3,54.5,3,strongest inhibitory effect among four tested compounds,22,fold higher activity than ASA on collagen-induced aggregation ([2]; relative to ASA): 3 fold
CC(C)=CC/C=C(\C)[C@H]1CC[C@]2(C)[C@@H]1[C@H](O)C[C@@H]1[C@@]3(C)CC[C@H](O[C@@H]4O[C@H](CO)[C@@H](O)[C@H](O)[C@H]4O[C@@H]4O[C@H](CO)[C@@H](O)[C@H](O)[C@H]4O)C(C)(C)[C@@H]3CC[C@]12C [ginsenoside Rg5],28.1,comparable to that of ASA,409,,102,14.1,66.0,8,,8,
"CC(=O)Oc1ccccc1C(=O)O [Aspirin(ASP), Aspirin]",,,,,,,,,,,"IC50 ([2]; Platelet): 588 µM; IC50 ([3]; Platelet): 508 µM; intensity of platelet aggregation, inducer AA ([7]; 0.7 × 10^−3 M Aspirin): −; intensity of platelet aggregation, inducer AA (value in brackets) ([7]; Aspirin (1.4 × 10^−3 M)): ±; intensity of platelet aggregation, inducer ADP ([8]; 2.8 × 10^−3 M Aspirin): −; intensity of platelet aggregation, inducer ADP (value in brackets) ([8]; Aspirin (5.5 × 10^−3 M)): ±; intensity of platelet aggregation, inducer collagen ([9]; 1.4 × 10^−3 M Aspirin): −; intensity of platelet aggregation, inducer collagen (value in brackets) ([9]; Aspirin (2.8 × 10^−3 M)): ±; IC50 ([6]; Platelet): 66 µM"
"CC(C)=CCC[C@](C)(O)[C@H]1CC[C@]2(C)[C@@H]1[C@H](O)C[C@@H]1[C@@]3(C)CC[C@H](O[C@@H]4O[C@H](CO)[C@@H](O)[C@H](O)[C@H]4O[C@@H]4O[C@H](CO)[C@@H](O)[C@H](O)[C@H]4O)C(C)(C)[C@@H]3CC[C@]12C [20(S)-ginsenosides Rg3, 20(S)-ginsenoside Rg3]",23.5,,> 700,,> 700,12.9,57.2,53,relatively strong inhibitory effect,,
"CC(C)=CCC[C@](C)(O)[C@H]1CC[C@]2(C)[C@@H]1[C@H](O)C[C@@H]1[C@@]3(C)CC[C@H](O[C@@H]4O[C@H](CO)[C@@H](O)[C@H](O)[C@H]4O[C@@H]4O[C@H](CO)[C@@H](O)[C@H](O)[C@H]4O)C(C)(C)[C@@H]3CC[C@]12C (racemic) [Racemic ginsenoside Rg3, ginsenoside Rg3]",,,,,,,,,exhibited inhibitory effect,,
